{"source": "patent US8609607B2", "about": "“Modified defensins and their use” (The United States of America as represented by the …, priority 2002, dated 2013)", "key": {"[1]": {"tested_on": "Escherichia coli ATCC43827", "assay": "radial diffusion assay, antibacterial activity", "type": "cell-based", "conditions": "compared to unmodified HNP-1; 16-256 nM; FIG. 2A", "protocol": "(§1) The antibacterial activity of various concentrations of HNP-1 and ADP-ribosyl-HNP-1 (16 nM, 32 nM, 64 nM, 128 nM, 256 nM) on Escherichia coli ATCC43827 (American Type Culture Collection, Rockville, Md.) was evaluated by the radial diffusion assay (Takemura et al., Antimicrob. Agents Chemother. 40: 2280-2284, 1996). Antimicrobial activity was positively correlated with the diameter of a zone cleared of E. coli growth (minus the diameter of the central well (3 mm))."}, "A549 cells [2]": {"tested_on": "A549 cells", "assay": "chromium release assay, effect of ADP-ribosylated HNP-1 on HNP-1 cytotoxic activity", "type": "cell-based", "conditions": "HNP-1 12 μM incubated 1 hour at 37° C. with 0-12 μM ADP-ribosyl-HNP-1; FIG. 3B", "protocol": "(§2) Chromium (^51Cr)-labeled A549 cells (American Type Culture Collection) were incubated (18 hours, 37° C.) in 100 μl of serum-free RPMI (Gibco Fluids Inc., Rockville, Md.) containing various concentrations of HNP-1, synthetic HNP-1, or ADP-ribosyl-HNP-1 (1.5 μM, 3 μM, 6 μM, 12 μM, 24 μM) to quantify defensin cytotoxicity. Cytotoxicity was positively correlated with the amount of chromium released from lysed cells (Panyutich et al., Am. J. Respir. Cell. Mol. Biol. 12:351-357, 1995). Percent of lysis was calculated as (cpmexp−cpmspont)/(cpmmax−cpmspont)×100 (exp, experimental conditions; max, maximal release; spont, spontaneous release).\nHNP-1 (12 μM) was incubated with various concentrations of ADP-ribosyl-HNP-1 (0-12 μM) for 1 hour at 37° C. before the initiation of the chromium release assay. The chromium release assay was performed as described in Example 5. HNP-1 and ADP-ribosyl-HNP-1 (0-12 μM) were included as controls."}, "E. coli": {"tested_on": "E. coli", "assay": "radial diffusion assay, effect of ADP-ribosylated HNP-1 on HNP-1 activity", "type": "cell-based", "conditions": "HNP-1 100 nM incubated 1 hour at 37° C. with 0-800 nM ADP-ribosylated HNP-1; FIG. 3A", "protocol": "as §1\nHNP-1 (100 nM) was incubated for 1 hour at 37° C. with various concentrations of ADP-ribosylated HNP-1 (0-800 nM) before the initiation of the E. coli radial diffusion assay. The radial diffusion assay was performed as described in Example 4."}, "A549 cells [3]": {"tested_on": "A549 cells", "assay": "chromium release assay, defensin cytotoxicity", "type": "cell-based", "conditions": "compared to unmodified HNP-1; 1.5-24 μM, 18 hours, 37° C.; FIG. 2B", "protocol": "as §2"}, "A549 cells [4]": {"tested_on": "A549 cells", "assay": "IL-8 production by A549 cells (indirect ELISA)", "type": "cell-based", "conditions": "12 or 24 hours", "protocol": "A549 cells (3×10^4 cells per well) were incubated in a 96-well plate in 200 μl of serum-free RPMI medium (Gibco Fluids Inc) containing ADP-ribosyl-HNP-1 or HNP-1 (0.25, 0.75, 1.5, 3 μM). Culture medium was sampled after 12 or 24 hours of incubation and IL-8 content in the medium was assayed by indirect ELISA (FIGS. 4A and 4B) according to the manufacturer's instructions (R & D System Inc. Minneapolis, Minn.)."}, "CD3+ T-cells": {"tested_on": "CD3+ T-cells", "assay": "T cell chemotaxis assay", "type": "cell-based, human", "conditions": "0.025 to 25 nM, 4 hours; compared to unmodified HNP; FIG. 4C", "protocol": "CD3^+ T-cells were isolated from human peripheral blood prepared by leukapheresis (NIH, Department of Transfusion Medicine, Bethesda, Md.) (Chertov et al, J. Biol. Chem. 271:2935-2940, 1996) and suspended in migration medium (RPMI 1640, 0.5% bovine serum albumin, 25 mM HEPES). Inserts coated with collagen IV (Becton Dickinson Labware, Bedford, Mass.) were placed into 24-well culture plates to form upper and a lower chambers in each well. Upper chambers were wetted with migration medium, then 500 μl of migration medium with or without ADP-ribosyl-HNP-1 or HNP-1 (0.025 to 25 nM) were added to the lower chamber. Cells were added to the upper chamber and plates were incubated at 37° C. in 5% CO2 for 4 hours. Cells incubated in the presence or absence of (macrophage inflammatory protein-1β) MIP-1β (5 ng/ml) were the positive and negative controls, respectively. Lymphocytes that had migrated to the lower chamber were harvested by centrifugation and counted in a hematocytometer. Chemotaxis percentage was calculated as follows: (number of cells migrated to the lower chamber in the experimental conditions−number of cells migrated in the negative control)/(number of cells migrated in the positive control−number of cells migrated in negative control)×100."}}}
{"substance": "ADP-ribosylated HNP-1: HNP-1 (SEQ ID NO:2) mono-ADP-ribosylated by ART-1 with NAD, at arginine 14", "values": [{"measurement": "antibacterial activity (diameter of zone cleared of E. coli growth)", "setting": "[1]", "result": "reduced antibacterial activity"}, {"measurement": "effect on cytotoxic activity of HNP-1, chromium release assay", "setting": "A549 cells [2]", "result": "blocked the cytotoxic activity of HNP-1 in a concentration-dependent manner"}, {"measurement": "effect on antimicrobial/cytotoxic activity of HNP-1, radial diffusion assay", "setting": "E. coli", "result": "blocked the cytotoxic activity of HNP-1 in a concentration-dependent manner"}, {"measurement": "cytotoxicity (lysis of 51Cr-labeled A549 cells)", "setting": "A549 cells [3]", "result": "less cytotoxic than unmodified HNP-1"}, {"measurement": "IL-8 release into the medium versus unmodified peptide", "setting": "A549 cells [4]; 0.75 μM peptide, P=0.01", "result": "significantly higher"}, {"measurement": "IL-8 release into the medium versus unmodified peptide", "setting": "A549 cells [4]; 1.5 μM peptide, P=0.01", "result": "significantly higher"}, {"measurement": "IL-8 release into the medium versus unmodified peptide", "setting": "A549 cells [4]; 3 μM peptide", "result": "no differences"}, {"measurement": "ability to recruit T cells (chemotaxis)", "setting": "CD3+ T-cells", "result": "retained the ability to recruit T cells at a level that was comparable to unmodified HNP"}]}
